In paper PMC4473678, “Swedish mutant APP-based BACE1 binding site peptide reduces APP β-cleavage and cerebral Aβ levels in Alzheimer’s mice” (Scientific Reports, 2015):
Entries after “also recorded” stand apart in the source; their conditions may differ.

What was measured:
BACE1 in CHO/APPwt cells = assay: IP/WB of BACE1 binding in CHO/APPwt cell lysates; parameters: species or system Chinese hamster; settings: biotin-labeled peptide 20 μM, 30 min, anti-biotin IP, listed as TAT-APPsweBBP
5XFAD mice = assay: β-amyloid immunohistochemistry (4G8), 5XFAD mice; type: in vivo, mouse; settings: 100 nmol/kg i.p. daily, 8 weeks, RSC, EC and H regions, n = 10, 5 female/5 male, listed as TAT-APPsweBBP
Experimental: Transgenic AD mice [5XFAD; B6SJL-Tg(APPSwFlLon,PSEN1*M146L*L286V) 6799Vas/Mmjax] at 2.5 months of age were obtained from the Jackson Laboratory (Bar Harbor, ME) and housed and maintained in the Animal Facility of College of Medicine at University of South Florida (USF). The mice at 3.5 months of age were treated with TAT-APPsweBBP, TAT peptide (100 nmol/kg in 100 μL PBS) or PBS (100 μL) daily by intraperitioneal injection (i.p.) for eight consecutive weeks. The mice were subjected to behavioral testing after 8-week treatment and then euthanized for immunohistochemical, WB and ELISA analyses. Animals were housed and maintained at USF and all experiments were in compliance with protocols approved by USF Institutional Animal Care and Use Committee. All methods were performed in accordance with relevant guidelines and regulations.
For paraffin brain tissues, we sectioned five coronal sections per region with a 100-μm interval and a thickness of 5-μm for retrosplenial cortex (RSC), entorhinal cortex (EC), and hippocampus (H), located at bregma −2.92 to −3.64 mm. […] Images were acquired as digitized tagged-image format files (to retain maximum resolution) using a BX60 microscope with an attached CCD camera system (DP-70, Olympus, Tokyo, Japan), and digital images were routed into a Windows PC for quantitative analyses using SimplePCI software (Hamamatsu Photonics, Hamamatsu, Shizuoka, Japan). […]

YGRKKRRQRRREISEVNLDAEFR [APPsweBBP conjugated with the membrane fusion fragment of HIV-1 Tat protein]
binding to BACE1 in cell lysates (BACE1 in CHO/APPwt cells): strongly and specifically binds to BACE1; also recorded: markedly bound to BACE1 compared to APPsweBBP | β-amyloid plaques / 4G8 immunoreactive area (5XFAD mice): greatly reduced; also recorded: markedly reduced β-amyloid plaques; also recorded: significant differences between TAT-APPsweBBP and TAT peptide treatment groups (**P < 0.01)
